{"source": "EPA's ToxValDB 9.5", "test_system": "Rattus norvegicus", "conditions": "oral", "key": {"[1]": {"conditions": "short-term, duration: 28 days, gavage, F, Sprague-Dawley, Clinical Observation: Piloerection + Urinalysis: pH decrease, K decrease + Relative Organ Weight: Spleen increase"}, "[2]": {"conditions": "short-term, duration: 28 days, gavage, M, Sprague-Dawley, Clinical Observation: Piloerection + Urinalysis: pH decrease, K decrease + Relative Organ Weight: Spleen increase"}, "[3]": {"conditions": "subchronic, gavage, M, Sprague-Dawley, Absolute Organ Weight: Seminal vesicle increase, Prostate increase + Relative Organ Weight: Seminal vesicle increase, Prostate increase"}, "[4]": {"conditions": "subchronic, gavage, M, Sprague-Dawley, Clinical Observation: Salivation + Urinalysis: Volume increase, Tubular epithelial cell + Blood Chemistry: PL increasegamma-GTP increase, TP…"}}, "data": [{"smiles": "O=C(O)c1cccc([N+](=O)[O-])c1C(=O)O", "note": "[3-Nitrophthalic acid]", "values": [{"measurement": "NOAEL", "setting": "[1]", "value": 500, "unit": "mg/kg-day"}, {"measurement": "NOEL", "setting": "[1]", "value": 500, "unit": "mg/kg-day"}, {"measurement": "LOEL", "setting": "[2]", "value": 500, "unit": "mg/kg-day"}, {"measurement": "NOAEL", "setting": "[2]", "value": 500, "unit": "mg/kg-day"}, {"measurement": "NOEL", "setting": "[2]", "value": 100, "unit": "mg/kg-day"}]}, {"smiles": "Cc1cc(S(=O)(=O)[O-])c(N)cc1Cl.[Na+]", "values": [{"measurement": "NOEL", "setting": "subchronic, gavage, M, Sprague-Dawley, Food Consumption: increase + Urinalysis: pH decrease + Absolute Organ Weight: Kidney increase + Relative Organ Weight: Kidney increase", "value": 300, "unit": "mg/kg-day"}]}, {"smiles": "CC(C)(C)c1cc(-n2nc3ccc(Cl)cc3n2)c(O)c(C(C)(C)C)c1", "values": [{"measurement": "NOAEL", "setting": "subchronic, duration: 42 days, gavage, M, CD(SD), Hematology: RBC decrease, NEUT increase, APTT decrease + Blood Chemistry: ALB increase, A/G increase, ALP increase, T-BIL decreasea2-GLOB …", "value": 2.5, "unit": "mg/kg-day"}]}, {"smiles": "ClC(Cl)C(Cl)Cl", "note": "[1,1,2,2-Tetrachloroethane]", "values": [{"measurement": "NOEL", "setting": "subchronic, diet, F, Fischer 344, Clinical Observation: Thinness Pallor + Body Weight Changes: decrease + Food Consumption: decrease + Hematology: Manual Hct decrease, Plt …", "value": 10.1, "unit": "mg/kg-day"}, {"measurement": "NOEL", "setting": "subchronic, diet, M/F, Fischer 344, Clinical Observation: Thinness Pallor + Body Weight Changes: decrease + Food Consumption: decrease + Hematology: Manual Hct decrease, Plt …", "value": "< 25.7", "unit": "mg/kg-day"}, {"measurement": "NOEL", "setting": "subchronic, diet, M, Fischer 344, Clinical Observation: Thinness Pallor + Body Weight Changes: decrease + Food Consumption: decrease + Hematology: Manual Hct decrease, Plt …", "value": 16.6, "unit": "mg/kg-day"}]}, {"smiles": "NNC(=O)CCCCC(=O)NN", "note": "[Hexanedihydrazide]", "values": [{"measurement": "NOEL", "setting": "subchronic, gavage, M, Sprague-Dawley, Clinical Observation: Emaciation R Incontinence of urine R Diarrhea R Loose stool R + Relative Organ Weight: Thymus increase, Kidney …", "value": 85, "unit": "mg/kg-day"}]}, {"smiles": "CC/C=C\\CCOC(C)=O", "note": "[(3Z)-3-Hexenyl acetate]", "values": [{"measurement": "NOAEL", "setting": "[3]", "value": 1000, "unit": "mg/kg-day"}, {"measurement": "NOEL", "setting": "[3]", "value": 300, "unit": "mg/kg-day"}]}, {"smiles": "Cc1[nH]n(-c2ccccc2)c(=O)c1N=Nc1ccc(-c2ccc(N=Nc3c(C)[nH]n(-c4ccccc4)c3=O)c(Cl)c2)cc1Cl", "note": "[C.I. Pigment Orange 13]", "values": [{"measurement": "NOEL", "setting": "subchronic, gavage, Sprague-Dawley", "value": 1000, "unit": "mg/kg-day"}]}, {"smiles": "Nc1nc(=S)[nH][nH]1", "note": "[3-Amino-1,2,4-triazole-5-thiol]", "values": [{"measurement": "NOEL", "setting": "subchronic, gavage, M/F, Sprague-Dawley, Deaths + Clinical Observation: White turbid urine SalivationSoft stool + Body Weight Changes: decrease + Food Consumption: decrease + …", "value": 10, "unit": "mg/kg-day"}]}, {"smiles": "COC(CCl)OC", "note": "[Ethane, 2-chloro-1,1-dimethoxy-]", "values": [{"measurement": "NOEL", "setting": "short-term, duration: 28 days, gavage, M/F, Blood Chemistry: GPT increase, ALP increase, T-Bil increase, IP decrease + Organ Weight: Liver increase, Spleen decrease, Kidney increase, …", "value": 15, "unit": "mg/kg-day"}]}, {"smiles": "CCCCCCCC1CCCC1=O", "note": "(stereo unspecified) [2-Heptylcyclopentanone]", "values": [{"measurement": "NOAEL", "setting": "[4]", "value": 200, "unit": "mg/kg-day"}, {"measurement": "NOEL", "setting": "[4]", "value": 50, "unit": "mg/kg-day"}]}, {"smiles": "CN1C(=O)C(O)N=C(c2ccccc2Cl)c2cc(Cl)ccc21", "note": "(stereo unspecified) [Lormetazepam]", "values": [{"measurement": "NOEL", "setting": "subchronic, duration: 35 days, gavage, F, Sprague-Dawley, Clinical Observation: Locomotor activity decrease, Drowsiness Aggression + Body Weight Changes: Body weight gain increase + Food Consumption…", "value": 4, "unit": "mg/kg-day"}, {"measurement": "NOEL", "setting": "subchronic, duration: 35 days, gavage, M, Sprague-Dawley, Clinical Observation: Locomotor activity decrease, Drowsiness Aggression + Body Weight Changes: Body weight gain increase + Food Consumption…", "value": 20, "unit": "mg/kg-day"}]}, {"smiles": "CCC(C)(C)OC", "note": "[tert-Amyl methyl ether]", "values": [{"measurement": "NOAEL", "setting": "short-term, duration: 29 days, gavage, M/F, Sprague-Dawley, Deaths + Clinical Observation: Rales Anogenital staining + Body Weight Changes: Mean body weight decrease + Food Consumption: decrease + …", "value": 125, "unit": "mg/kg-day"}]}, {"smiles": "CCCCCCCCCCC=O", "note": "[Undecanal]", "values": [{"measurement": "NOAEL", "setting": "subchronic, duration: 42 days, gavage, M, CD(SD), Clinical Observation: Salivation (transient)", "value": 1000, "unit": "mg/kg-day"}]}, {"smiles": "O=C(O)[C@H]1CCCC[C@H]1C(=O)O", "note": "[cis-1,2-Cyclohexanedicarboxylic acid]", "values": [{"measurement": "NOEL", "setting": "subchronic, gavage, M, Sprague-Dawley, Deaths + Clinical Observation: Dead (4/12)Soiled perigenitalia of urine + Hematology: WBC increase, Neutrophils(%) increase, Lymphocytes(%) …", "value": 300, "unit": "mg/kg-day"}]}, {"smiles": "O=[N+]([O-])c1ccc(Cl)c([N+](=O)[O-])c1", "note": "[1-Chloro-2,4-dinitrobenzene]", "values": [{"measurement": "NOEL", "setting": "subchronic, gavage, M, Sprague-Dawley, Relative Organ Weight: Thymus decrease + Histopathology: Stomach/forestomach- Squamous cell hyperplasia Stomach/forestomach -inflammatory …", "value": 1, "unit": "mg/kg-day"}]}, {"smiles": "C=CS(=O)(=O)CCNC(=O)c1cccc(Nc2nc(F)nc(Nc3cc(S(=O)(=O)[O-])cc4cc(S(=O)(=O)[O-])c(N=Nc5ccc6c(S(=O)(=O)[O-])cccc6c5S(=O)(=O)[O-])c(O)c34)n2)c1.[Na+].[Na+].[Na+].[Na+]", "values": [{"measurement": "NOEL", "setting": "short-term, duration: 28 days, gavage, M/F, Urinalysis: Occult blood increase, Bil increase + Hematology: RET increase, WBC increase, LYMPH increase + Blood Chemistry: BUN increase, T-…", "value": 50, "unit": "mg/kg-day"}]}, {"smiles": "CN(C)c1cccc(C(=O)O)c1", "note": "[Benzoic acid, 3-(dimethylamino)-]", "values": [{"measurement": "NOEL", "setting": "subchronic, gavage, M, Sprague-Dawley, Clinical Observation: Salivation + Blood Chemistry: Bil increase, Cl decrease + Relative Organ Weight: Heart increase", "value": 200, "unit": "mg/kg-day"}]}]}
